23 compounds from PubChem BioAssay AID588482 (NMMLSC, 2011) can be followed below.

Active and inactive are the calls of the source.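 How the source made its calls: active means a percent response above zero, which rounds up to a positive score; inactive means the rest.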

Sequence of Beta-adrenergic receptor kinase 1 (Homo sapiens) (P25098 whole entry, looked up): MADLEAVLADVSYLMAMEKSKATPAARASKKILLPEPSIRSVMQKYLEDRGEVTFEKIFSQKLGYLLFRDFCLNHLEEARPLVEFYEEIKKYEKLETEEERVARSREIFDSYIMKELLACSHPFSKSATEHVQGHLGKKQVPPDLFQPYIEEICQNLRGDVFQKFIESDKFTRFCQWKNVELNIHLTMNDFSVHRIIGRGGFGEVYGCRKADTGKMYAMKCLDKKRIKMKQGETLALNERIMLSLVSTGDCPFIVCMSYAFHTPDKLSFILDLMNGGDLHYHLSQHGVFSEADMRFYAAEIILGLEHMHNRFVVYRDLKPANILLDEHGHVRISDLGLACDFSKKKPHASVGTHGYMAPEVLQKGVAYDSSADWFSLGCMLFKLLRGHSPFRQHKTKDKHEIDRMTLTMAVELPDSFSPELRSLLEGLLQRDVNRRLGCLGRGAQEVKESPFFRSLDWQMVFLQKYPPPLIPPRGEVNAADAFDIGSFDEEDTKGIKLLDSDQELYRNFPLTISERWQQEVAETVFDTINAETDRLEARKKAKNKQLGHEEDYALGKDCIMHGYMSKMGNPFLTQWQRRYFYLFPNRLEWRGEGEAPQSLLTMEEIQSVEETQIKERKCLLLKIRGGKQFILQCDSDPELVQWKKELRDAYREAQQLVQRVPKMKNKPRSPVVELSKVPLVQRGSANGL

The test concerns the target Beta-adrenergic receptor kinase 1 (Homo sapiens) (UniProt P25098). The test is described as follows: inhibition of GRK2-catalyzed rhodopsin phosphorylation – biochemical, set 2, orthogonal assay for GRK2 aptamer-displacement inhibitor project, late-stage follow-up (AID 588482). Particulars: 32P incorporation, SDS-PAGE, at 200 µM, hits give high values.
`Cc1ccc(CCNC(=O)CCS(=O)(=O)c2ccc(Br)cc2)cc1`: the inhibition was -30.2% (inactive).

Turning to `CC(CS(=O)(=O)c1ccc2c(c1)NC(=O)CS2)C(=O)NCc1ccccc1Cl` (stereo not drawn), the inhibition was 46.8%.

Take `O=C(O)Cc1ccc(-n2cccc2)cc1`: the inhibition was 46.5%.

As to `COc1ccc(CCNC(=O)CCS(=O)(=O)c2ccc(Br)cc2)cc1OC`, the inhibition was -29.5% (inactive).

As for `O=C(CSc1nc2ccccc2c(=O)n1-c1ccccc1)NC(=O)CN1CCCC1=O`, the inhibition was -54% (inactive).

For `CCN(CC)c1ccc(NC(=O)CCS(=O)(=O)c2ccc(Br)cc2)c(C)c1`, the inhibition is 59.3%.

Take `CC(=O)N1CCN(Cc2nc3cc(Cl)ccc3c(=O)[nH]2)CC1`: the inhibition is -20% (inactive).

Take `C#CCSc1nc2sc3c(c2c(=O)n1C)CCC3`: the inhibition is 36.7%.

As to `COC(=O)c1ccc(NC(=O)CCS(=O)(=O)c2ccc(Br)cc2)cc1`, the inhibition is -71.8% (inactive).

Consider `Cc1cccc(CCNC(=O)CCS(=O)(=O)c2ccc(Br)cc2)c1`, for which the inhibition was -50.6% (inactive).

For the compound `CCOc1ccc(NC(=O)CCS(=O)(=O)c2ccc(Br)cc2)cc1`, the inhibition was -28.6% (inactive).

Take `O=C(CCS(=O)(=O)c1ccc(Br)s1)Nc1ccccc1Br`: the inhibition was -32.3% (inactive).

Consider `Cc1ccccc1NC(=O)CCS(=O)(=O)c1ccc(Br)s1`, for which the inhibition was -7.11% (inactive).

With `NS(=O)(=O)c1ccc(CCNC(=O)CCS(=O)(=O)c2ccc(Br)cc2)cc1`, the inhibition was -15.8% (inactive).

For `CCOc1ccccc1NC(=O)CCS(=O)(=O)c1ccc(Br)cc1`, the inhibition is 0.79%.

With `COc1ccc(Cl)cc1NC(=O)CCS(=O)(=O)c1ccc(Br)cc1`, the inhibition is 11%.

With `Cc1cc2ccccc2n1CCNC(=O)C(C)Oc1ccccc1` (stereo not drawn), the inhibition was -3.83% (inactive).

As for `COC(=O)c1ccccc1NC(=O)CCS(=O)(=O)c1ccc(Br)s1`, the inhibition is -18.3% (inactive).

As to `O=C(CCS(=O)(=O)c1ccc(Br)cc1)NCc1cccs1`, the inhibition is 8.45%.

For the compound `O=C(CCS(=O)(=O)c1ccc(Br)cc1)Nc1ccc(Br)cc1F`, the inhibition was 11.4%.

Regarding `COc1ccc(NC(=O)CCS(=O)(=O)c2ccc(Br)s2)cc1`, the inhibition was -90.5% (inactive).

As for `O=C(CN1CCc2ccccc21)NC(=O)NCc1ccccc1`, the inhibition is -42.4% (inactive).

`COc1ccc([N+](=O)[O-])cc1NC(=O)CCS(=O)(=O)c1ccc(Br)cc1`: the inhibition was 30.9%.
